Source: PubChem BioAssay AID2060491 (Molecular Pharmacology Branch, DTP, NCI, 2025)

System: 857933-349-R-J2-PDC complex spheroids, viability
Assay: Anticancer human tumor 857933-349-R-J2-PDC patient-derived colon adenocarcinoma cell line growth inhibition [GQUAD]
Conditions: for IC50: curve of first compound; for viability, T/C: stronger effect = lower value
Outline: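 Multi-cell-type spheroids of tumor cells with HUVEC and mesenchymal stem cells, treated with drug combinations. Concentrations descend in half-log steps from near clinical Cmax, or from 10 microM where Cmax is unknown; viability read-out.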
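Further: spheroids exposed to compounds for one week before readout.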
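Wherever viability, T/C is given: percent viability relative to vehicle DMSO wells taken as 100%.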

In the case of `Nc1ccn(C2OC(CO)C(O)C2(F)F)c(=O)n1` (configuration not stated) + Cc1cnc(CNC(=O)c2c(=O)c3ccc(N4CCCN(C)CC4)nc3n3c2sc2ccccc23)cn1, the IC50 (second compound 0.0316 µM) is reported as 168 nM, the IC50 (second compound 0.1 µM) is reported as 154 nM and the IC50 (second compound 0.316 µM) is reported as < 31.6 nM. The IC50 (second compound 1 µM) was < 31.6 nM, the IC50 (second compound 3.16 µM) was < 31.6 nM and the IC50 (second compound 10 µM) was < 31.6 nM. It also gave a viability, T/C (second compound 0.0316 µM, first compound 0.0316 µM) of 75.9%, a viability, T/C (second compound 0.0316 µM, first compound 0.1 µM) of 52.3% and a viability, T/C (second compound 0.0316 µM, first compound 0.316 µM) of 46.6%. The viability, T/C (second compound 0.0316 µM, first compound 1 µM) was 9.53%, the viability, T/C (second compound 0.0316 µM, first compound 3.16 µM) was 6.32% and the viability, T/C (second compound 0.0316 µM, first compound 10 µM) was 3.33%. For the same compound, the viability, T/C (second compound 0.1 µM, first compound 0.0316 µM) was 63.6%, the viability, T/C (second compound 0.1 µM, first compound 0.1 µM) was 61% and the viability, T/C (second compound 0.1 µM, first compound 0.316 µM) was 32.8%. For the same compound, the viability, T/C (second compound 0.1 µM, first compound 1 µM) was 9.17%, the viability, T/C (second compound 0.1 µM, first compound 3.16 µM) was 3.78% and the viability, T/C (second compound 0.1 µM, first compound 10 µM) was 2.52%. It also gave a viability, T/C (second compound 0.316 µM, first compound 0.0316 µM) of 28.4%, a viability, T/C (second compound 0.316 µM, first compound 0.1 µM) of 18.3% and a viability, T/C (second compound 0.316 µM, first compound 0.316 µM) of 10.9%. For the same compound, the viability, T/C (second compound 0.316 µM, first compound 1 µM) was 3.62%, the viability, T/C (second compound 0.316 µM, first compound 3.16 µM) was 2.32% and the viability, T/C (second compound 0.316 µM, first compound 10 µM) was 1.88%. The viability, T/C (second compound 1 µM, first compound 0.0316 µM) was 5.32%, the viability, T/C (second compound 1 µM, first compound 0.1 µM) was 4.52% and the viability, T/C (second compound 1 µM, first compound 0.316 µM) was 2.56%. It also gave a viability, T/C (second compound 1 µM, first compound 1 µM) of 1.63%, a viability, T/C (second compound 1 µM, first compound 3.16 µM) of 1.61% and a viability, T/C (second compound 1 µM, first compound 10 µM) of 1.61%. The viability, T/C (second compound 3.16 µM, first compound 0.0316 µM) was 2.51%, the viability, T/C (second compound 3.16 µM, first compound 0.1 µM) was 2.77% and the viability, T/C (second compound 3.16 µM, first compound 0.316 µM) was 1.64%. For the same compound, the viability, T/C (second compound 3.16 µM, first compound 1 µM) was 1.52%, the viability, T/C (second compound 3.16 µM, first compound 3.16 µM) was 1.19% and the viability, T/C (second compound 3.16 µM, first compound 10 µM) was 0.24%. It also gave a viability, T/C (second compound 10 µM, first compound 0.0316 µM) of 1.6%, a viability, T/C (second compound 10 µM, first compound 0.1 µM) of 1.03% and a viability, T/C (second compound 10 µM, first compound 0.316 µM) of 1.41%. For the same compound, the viability, T/C (second compound 10 µM, first compound 1 µM) was 0.26%, the viability, T/C (second compound 10 µM, first compound 3.16 µM) was 0.21% and the viability, T/C (second compound 10 µM, first compound 10 µM) was 0.2%.
